In PubChem BioAssay (NCI):
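Following 48 hours of exposure in 96-well plates, responses at five concentrations were used to interpolate endpoints linearly. TGI: concentration producing complete growth inhibition.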

Tests used:
Experiment in all cases: NCI tumour cell line growth inhibition, 48 h
[1] = tested on: SF-268 CNS
[2] = tested on: OVCAR-4 ovarian
[3] = tested on: SF-295 CNS
[4] = tested on: U251 CNS
[5] = tested on: EKVX NSCLC
[6] = tested on: MDA-N
[7] = tested on: RXF-631 renal
[8] = tested on: MDA-MB-435
[9] = tested on: SNB-78 CNS
[10] = tested on: ACHN renal
[11] = tested on: CAKI-1 renal
[12] = tested on: HOP-62 NSCLC
[13] = tested on: RXF 393 renal
[14] = tested on: IGROV1 ovarian
[15] = tested on: SNB-19 CNS
[16] = tested on: LOX IMVI melanoma
[17] = tested on: NCI-H522 lung
[18] = tested on: 786-0 renal
[19] = tested on: SK-MEL-2 melanoma
[20] = tested on: M14 melanoma
[21] = tested on: NCI-H226 lung
[22] = tested on: OVCAR-5 ovarian
[23] = tested on: SK-OV-3 ovarian
[24] = tested on: SK-MEL-28 melanoma
[25] = tested on: M19-MEL melanoma
[26] = tested on: OVCAR-3 ovarian
[27] = tested on: MALME-3M melanoma
[28] = tested on: SN12C renal
[29] = tested on: MCF7 breast
[30] = tested on: NCI/ADR-RES ovarian
[31] = tested on: PC-3 prostate
[32] = tested on: LXFL 529 NSCLC
[33] = tested on: SW-620 colon
[34] = tested on: NCI-H23 lung
[35] = tested on: HS 578T breast
[36] = tested on: UACC-62 melanoma
[37] = tested on: SNB-75 CNS
[38] = tested on: MDA-MB-231 breast
[39] = tested on: A498 renal
[40] = tested on: UO-31 renal
[41] = tested on: A549 NSCLC
[42] = tested on: KM20L2 colon
[43] = tested on: UACC-257 melanoma
[44] = tested on: HCT-116 colon
[45] = tested on: HOP-92 NSCLC
[46] = tested on: T-47D breast
[47] = tested on: HCT-15 colon
[48] = tested on: NCI-H460 lung
[49] = tested on: TK-10 renal
[50] = tested on: BT-549 breast
[51] = tested on: KM12 colon
[52] = tested on: HT29 colon
[53] = tested on: DMS 273 small cell lung
[54] = tested on: DMS 114 small cell lung
[55] = tested on: SK-MEL-5 melanoma
[56] = tested on: RPMI-8226 leukemia
[57] = tested on: SR leukemia
[58] = tested on: DU-145 prostate
[59] = tested on: COLO 205 colon
[60] = tested on: OVCAR-8 ovarian
[61] = tested on: SF-539 CNS
[62] = tested on: HL-60(TB) leukemia
[63] = tested on: MOLT-4 leukemia
[64] = tested on: HCC-2998 colon
[65] = tested on: DLD-1 colon
[66] = tested on: HOP-18 NSCLC
[67] = tested on: K-562 leukemia
[68] = tested on: CCRF-CEM leukemia

CCN(CCCl)CCCCNc1c2ccccc2nc2ccc(OC)cc12
TGI [1]: 1.36 µM | TGI [2]: 2.79 µM | TGI [3]: 3.64 µM | TGI [4]: 1.72 µM | TGI [5]: 3.15 µM | TGI [6]: 2.96 µM | TGI [7]: 4.51 µM | TGI [8]: 2.12 µM | TGI [9]: 4.07 µM | TGI [10]: 1.72 µM | TGI [11]: 1.89 µM | TGI [12]: 3.71 µM | TGI [13]: 1.7 µM | TGI [14]: 2.05 µM | TGI [15]: 3.34 µM | TGI [16]: 1.52 µM | TGI [17]: 1.43 µM | TGI [18]: 1.56 µM | TGI [19]: 2.48 µM | TGI [20]: 2.92 µM | TGI [21]: 1.08 µM | TGI [22]: 2.96 µM | TGI [23]: 2.77 µM | TGI [24]: 8.36 µM | TGI [25]: 1.68 µM | TGI [26]: 3.78 µM | TGI [27]: 2.89 µM | TGI [28]: 1.61 µM | TGI [29]: 0.935 µM | TGI [30]: > 100 µM | TGI [31]: 1.14 µM | TGI [32]: 1.76 µM | TGI [33]: 1.63 µM | TGI [34]: 1.96 µM | TGI [35]: > 100 µM | TGI [36]: 1.59 µM | TGI [37]: 2.14 µM | TGI [38]: 3.99 µM | TGI [39]: 0.875 µM | TGI [40]: 4.51 µM | TGI [41]: 2.27 µM | TGI [42]: 3.35 µM | TGI [43]: 10.5 µM | TGI [44]: 1.29 µM | TGI [45]: 0.886 µM | TGI [46]: 1.5 µM | TGI [47]: 5.43 µM | TGI [48]: 1.39 µM | TGI [49]: 5.22 µM | TGI [50]: 7.41 µM | TGI [51]: 1.82 µM | TGI [52]: 3.31 µM | TGI [53]: 1.44 µM | TGI [54]: 1.83 µM | TGI [55]: 1.98 µM | TGI [56]: 4.08 µM | TGI [57]: 1.55 µM | TGI [58]: 1.74 µM | TGI [59]: 3.63 µM | TGI [60]: 1.94 µM | TGI [61]: 4.69 µM

O=S1[C@H](c2ccccc2)c2c(-c3ccccc3)sc(-c3ccccc3)c2[C@@H]1c1ccccc1 (some centres undefined)
TGI [62]: 40.6 µM | TGI [1]: > 100 µM | TGI [2]: > 100 µM | TGI [3]: > 100 µM | TGI [4]: > 100 µM | TGI [5]: > 100 µM | TGI [63]: > 100 µM | TGI [7]: > 100 µM | TGI [10]: > 100 µM | TGI [11]: > 100 µM | TGI [12]: > 100 µM | TGI [13]: > 100 µM | TGI [14]: > 100 µM | TGI [15]: > 100 µM | TGI [64]: > 100 µM | TGI [16]: > 100 µM | TGI [17]: 27.2 µM | TGI [18]: > 100 µM | TGI [19]: > 100 µM | TGI [20]: > 100 µM | TGI [22]: > 100 µM | TGI [23]: > 100 µM | TGI [24]: > 100 µM | TGI [25]: > 100 µM | TGI [26]: > 100 µM | TGI [27]: > 100 µM | TGI [28]: > 100 µM | TGI [32]: > 100 µM | TGI [33]: > 100 µM | TGI [34]: > 100 µM | TGI [36]: > 100 µM | TGI [37]: 87.9 µM | TGI [40]: > 100 µM | TGI [65]: > 100 µM | TGI [41]: > 100 µM | TGI [42]: > 100 µM | TGI [43]: > 100 µM | TGI [66]: > 100 µM | TGI [67]: > 100 µM | TGI [45]: 67.9 µM | TGI [47]: > 100 µM | TGI [48]: > 100 µM | TGI [49]: > 100 µM | TGI [51]: > 100 µM | TGI [52]: > 100 µM | TGI [53]: > 100 µM | TGI [54]: > 100 µM | TGI [68]: > 100 µM | TGI [55]: > 100 µM | TGI [56]: > 100 µM | TGI [59]: > 100 µM | TGI [60]: > 100 µM | TGI [61]: > 100 µM
